Where a name gives a salt, the structure may show the parent alone.
Target: CcpA (Streptococcus pneumoniae, UniProt A0A0H2ZQ65)
Conditions: 10 mM; room temperature; raises DNA affinity; direct binding of formate not shown

Sequence of CcpA (A0A0H2ZQ65 entry or part of it): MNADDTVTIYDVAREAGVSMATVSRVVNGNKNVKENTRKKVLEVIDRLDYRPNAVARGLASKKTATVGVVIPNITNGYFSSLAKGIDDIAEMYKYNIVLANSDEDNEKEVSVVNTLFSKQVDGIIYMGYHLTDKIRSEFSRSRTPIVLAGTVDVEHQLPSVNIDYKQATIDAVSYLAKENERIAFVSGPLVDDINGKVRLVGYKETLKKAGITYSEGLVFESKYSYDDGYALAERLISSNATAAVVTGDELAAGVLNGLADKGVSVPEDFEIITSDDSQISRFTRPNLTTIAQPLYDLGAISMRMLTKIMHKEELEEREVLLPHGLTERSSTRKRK

O=CO [sodium formate]
EMSA with pflB promoter DNA, protein preincubated with compound: formate enhanced the binding of CcpA to PpflB

— publication PMC5327383, “Pneumococcal galactose catabolism is controlled by multiple regulators acting on pyruvate formate lyase” (Scientific Reports, 2017)
